# Measurements as given in US20230338510A1, “NOVEL C[…] EPITOPE P[…] AND USE THEREOF” (SHANGHAI INSTITUTE OF MATERIA MEDICA, CHINESE ACADEMY OF …, priority 2020, published 2023).
# Tests used:
# [1] = system: RBD; type: in vivo; details: cynomolgus monkeys, subcutaneous immunization with adjuvant, 14 days after the second immunization; FIG. 8
# [2] = system: binding of RBD to ACE2; experiment: competitive ELISA: ability of antiserum to block the binding of RBD and ACE2; type: in vivo, cynomolgus monkeys
# [3] = biological target: human ACE2 (Homo sapiens, UniProt Q9BYF1); experiment: in vitro binding of biotin-labeled LP2 to ACE2 by ELISA; details: biotin-labeled polypeptide 1, 0.5 and 0.25 µg/mL, ACE2-coated plate; FIG. 10
# human ACE2, sequence (Q9BYF1 18-805): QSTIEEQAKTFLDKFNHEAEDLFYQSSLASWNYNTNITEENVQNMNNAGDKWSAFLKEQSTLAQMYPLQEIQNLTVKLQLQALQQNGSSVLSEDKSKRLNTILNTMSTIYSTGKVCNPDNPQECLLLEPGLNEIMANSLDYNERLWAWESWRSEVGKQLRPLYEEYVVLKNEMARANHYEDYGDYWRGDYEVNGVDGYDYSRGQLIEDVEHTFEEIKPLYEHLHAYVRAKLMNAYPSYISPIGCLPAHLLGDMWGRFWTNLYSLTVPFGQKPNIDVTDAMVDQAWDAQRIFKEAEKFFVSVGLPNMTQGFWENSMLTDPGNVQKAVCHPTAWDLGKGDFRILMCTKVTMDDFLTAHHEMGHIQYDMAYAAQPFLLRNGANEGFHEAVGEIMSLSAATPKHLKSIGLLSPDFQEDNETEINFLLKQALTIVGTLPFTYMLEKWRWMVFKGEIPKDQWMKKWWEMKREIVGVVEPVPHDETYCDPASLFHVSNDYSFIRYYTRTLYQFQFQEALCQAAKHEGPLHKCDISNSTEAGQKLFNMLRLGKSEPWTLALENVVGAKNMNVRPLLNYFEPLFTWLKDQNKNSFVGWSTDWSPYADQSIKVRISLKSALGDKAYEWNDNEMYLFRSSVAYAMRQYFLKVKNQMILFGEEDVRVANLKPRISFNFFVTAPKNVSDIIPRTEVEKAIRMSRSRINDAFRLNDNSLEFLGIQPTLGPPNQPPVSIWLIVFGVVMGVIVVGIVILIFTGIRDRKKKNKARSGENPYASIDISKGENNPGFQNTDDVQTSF
# Protocol: In this example, LP2 was labeled with biotin, and its binding ability with human ACE2 was detected by ELISA.
# The specific determination method is as follows: the ELISA plate was coated overnight with 10ug/mL ACE2 and blocked, then biotin-labeled polypeptides of different concentrations (1, 0.5 and 0.25 µg/mL) were added. After incubated at 37° C. for 1.5 hours, HRP-Streptavidin A diluted in 1:5000 was added, and incubated at 37° C. for 1 hour. The plate was washed, then TMB was added for color development, and the plate was read at 450 nm wavelength after termination.
sequence,measurement,setting,value
AKFVAAWTLKAAAGGGGYGFQPTNGVGYQPGGGGNYLYRLFRKSNLKPF [LP2],titer of antibodies against RBD,[1],higher titer of antibodies against RBD was produced
same,blocking effect of antiserum on the binding of RBD to ACE2,[2]; antiserum at 8-64 times of dilution,significant blocking effect
same,inhibition rate,[2]; antiserum at 8 times of dilution,more than 60%
same,inhibition rate,[2]; antiserum at 16 times of dilution,more than 40%
same,binding ability with ACE2,[3],strong binding ability
